Data from ChEMBL document CHEMBL3745645, “Synthesis, in vitro antitumor activity, dihydrofolate reductase inhibition, DNA intercalation and structure-activity relationship studies of 1,3,5-triazine analogues” (Bioorg Med Chem Lett, 2016).
Activity calls are given as the source filed them. No cut-off for these calls is given here.

Tests used:
SN12C = assay: Cytotoxicity against human SN12C cells at 10 uM after 48 hrs by SRB assay; format: functional; conditions: read-out: GI
[1] = Cytotoxicity against human DU145 cells at 10 uM after 48 hrs by SRB assay; format: functional; conditions: DU-145, 48 h, read-out: GI
CCRF-CEM [2] = assay: Cytotoxicity against human CCRF-CEM cells after 48 hrs by SRB assay; format: functional; conditions: for GI50 / TGI: pooled result: one value given for 6 cell lines, strains, targets or settings
[3] = Cytotoxicity against human HL-60(TB) cells after 48 hrs by SRB assay; format: functional; conditions: HL-60, 48 h, read-out: LC50 (the source's name)
K562 [4] = assay: Cytotoxicity against human K562 cells after 48 hrs by SRB assay; format: functional; conditions: K562, 48 h
[5] = Cytotoxicity against human MOLT4 cells after 48 hrs by SRB assay; format: functional; conditions: MOLT-4, 48 h, read-out: LC50 (the source's name)
SR [6] = assay: Cytotoxicity against human SR cells after 48 hrs by SRB assay; format: functional
A549 [7] = assay: Cytotoxicity against human A549 cells after 48 hrs by SRB assay; format: functional; conditions: A549, 48 h, pooled result: one value given for 8 cell lines, strains, targets or settings
[8] = Cytotoxicity against human SF268 cells after 48 hrs by SRB assay; format: functional; conditions: SF-268, 48 h, pooled result: one value given for 6 cell lines, strains, targets or settings
[9] = Cytotoxicity against human LOXIMVI cells after 48 hrs by SRB assay; format: functional; conditions: LOX IMVI, pooled result: one value given for 9 cell lines, strains, targets or settings
786-0 [10] = assay: Cytotoxicity against human 786-0 cells after 48 hrs by SRB assay; format: functional; conditions: 786-0, 48 h, pooled result: one value given for 8 cell lines, strains, targets or settings
[11] = Cytotoxicity against human PC3 cells after 48 hrs by SRB assay; format: functional; conditions: PC-3, 48 h; for GI50 / TGI: pooled result: one value given for 2 cell lines, strains, targets or settings
[12] = Cytotoxicity against human DU145 cells after 48 hrs by SRB assay; format: functional; conditions: DU-145, 48 h, read-out: LC50 (the source's name)
MCF7 = assay: Cytotoxicity against human MCF7 cells after 48 hrs by SRB assay; format: functional; conditions: MCF7, 48 h, pooled result: one value given for 6 cell lines, strains, targets or settings
Dihydrofolate reductase = target: T1, Dihydrofolate reductase (Homo sapiens, UniProt P00374); assay: Inhibition of human recombinant DHFR expressed in Escherichia coli by spectrophotometric analysis
T1 sequence (P00374 whole entry): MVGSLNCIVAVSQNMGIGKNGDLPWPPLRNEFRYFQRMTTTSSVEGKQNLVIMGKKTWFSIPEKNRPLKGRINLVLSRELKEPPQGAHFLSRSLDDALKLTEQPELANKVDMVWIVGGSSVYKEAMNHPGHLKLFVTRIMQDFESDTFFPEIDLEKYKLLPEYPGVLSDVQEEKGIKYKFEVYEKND

Calf thymus DNA = assay: Binding affinity to calf thymus DNA assessed as melting temperature by spectrophotometric analysis (reference value: 60 degC); format: nucleic-acid assay; conditions: Bos taurus
CCRF-CEM [13] = assay: Cytotoxicity against human CCRF-CEM cells at 10 uM after 48 hrs by SRB assay; format: functional
K562 [14] = assay: Cytotoxicity against human K562 cells at 10 uM after 48 hrs by SRB assay; format: functional; conditions: K562, 48 h, read-out: GI
[15] = Cytotoxicity against human MOLT4 cells at 10 uM after 48 hrs by SRB assay; format: functional; conditions: MOLT-4, 48 h, read-out: GI
SR [16] = assay: Cytotoxicity against human SR cells at 10 uM after 48 hrs by SRB assay; format: functional
A549 [17] = assay: Cytotoxicity against human A549 cells at 10 uM after 48 hrs by SRB assay; format: functional; conditions: A549, 48 h, read-out: GI
NCI-H226 = assay: Cytotoxicity against human NCI-H226 cells at 10 uM after 48 hrs by SRB assay; format: functional; conditions: NCI-H226, 48 h, read-out: GI
NCI-H522 = assay: Cytotoxicity against human NCI-H522 cells at 10 uM after 48 hrs by SRB assay; format: functional
HT-29 = assay: Cytotoxicity against human HT-29 cells at 10 uM after 48 hrs by SRB assay; format: functional
[18] = Cytotoxicity against human SW620 cells at 10 uM after 48 hrs by SRB assay; format: functional; conditions: SW-620, 48 h, read-out: GI
[19] = Cytotoxicity against human SF268 cells at 10 uM after 48 hrs by SRB assay; format: functional; conditions: SF-268, 48 h, read-out: GI
Malme-3M = assay: Cytotoxicity against human MALME-3M cells at 10 uM after 48 hrs by SRB assay; format: functional
M14 = assay: Cytotoxicity against human M14 cells at 10 uM after 48 hrs by SRB assay; format: functional
[20] = Cytotoxicity against human IGROV1 cells at 10 uM after 48 hrs by SRB assay; format: functional; conditions: IGROV-1, 48 h, read-out: GI
[21] = Cytotoxicity against human OVCAR5 cells at 10 uM after 48 hrs by SRB assay; format: functional; conditions: OVCAR-5, 48 h, read-out: GI
[22] = Cytotoxicity against human SKOV3 cells at 10 uM after 48 hrs by SRB assay; format: functional; conditions: SK-OV-3, 48 h, read-out: GI
786-0 [23] = assay: Cytotoxicity against human 786-0 cells at 10 uM after 48 hrs by SRB assay; format: functional
A498 = assay: Cytotoxicity against human A498 cells at 10 uM after 48 hrs by SRB assay; format: functional; conditions: A498, 48 h, read-out: GI
[24] = Cytotoxicity against human RXF393 cells at 10 uM after 48 hrs by SRB assay; format: functional; conditions: RXF 393, 48 h, read-out: GI
[25] = Cytotoxicity against human Hs 578T cells at 10 uM after 48 hrs by SRB assay; format: functional; conditions: read-out: GI
[26] = Cytotoxicity against human COLO205 cells at 10 uM after 48 hrs by SRB assay; format: functional; conditions: COLO 205, 48 h, read-out: GI
[27] = Cytotoxicity against human SF539 cells at 10 uM after 48 hrs by SRB assay; format: functional; conditions: SF-539, 48 h, read-out: GI
[28] = Cytotoxicity against human SNB75 cells at 10 uM after 48 hrs by SRB assay; format: functional; conditions: SNB-75, 48 h, read-out: GI
[29] = Cytotoxicity against human LOXIMVI cells at 10 uM after 48 hrs by SRB assay; format: functional; conditions: LOX IMVI, read-out: GI
[30] = Cytotoxicity against human OVCAR3 cells at 10 uM after 48 hrs by SRB assay; format: functional; conditions: OVCAR-3, 48 h, read-out: GI

Cc1nc2cc(Nc3nc(Nc4ccc(F)cc4)nc(N4CCN(C)CC4)n3)ccc2n1Cc1ccccc1
inhibition of growth at 10 µM (SN12C): 65.1% | inhibition of growth at 10 µM [1]: 83.3% | LC50 (CCRF-CEM [2]): 8.47 µM | GI50 (CCRF-CEM [2]): 1430 nM | TGI (CCRF-CEM [2]): 4.04 µM | CC50 [3]: 8.47 µM | LC50 (K562 [4]): 8.47 µM | CC50 [5]: 8.47 µM | LC50 (concentration killing 50% of cells) (SR [6]): 8.47 µM | GI50 (A549 [7]): 1.84 µM | LC50 (A549 [7]): 7.52 µM | TGI (A549 [7]): 3.86 µM | GI50 [8]: 1.77 µM | LC50 (concentration killing 50% of cells) [8]: 10.8 µM | TGI [8]: 3.94 µM | GI50 [9]: 1.81 µM | LC50 [9]: 6.27 µM | TGI [9]: 3.37 µM | GI50 (786-0 [10]): 1.77 µM | LC50 (concentration killing 50% of cells) (786-0 [10]): 9.66 µM | TGI (786-0 [10]): 3.81 µM | LC50 [11]: 20.5 µM | GI50 [11]: 1.89 µM | TGI [11]: 4.38 µM | CC50 [12]: 20.5 µM | GI50 (MCF7): 1.61 µM | LC50 (concentration killing 50% of cells) (MCF7): 7.54 µM | TGI (MCF7): 3.6 µM | IC50 (Dihydrofolate reductase): 310 nM | Tm (Calf thymus DNA): 65.6 °C | growth inhibition (GI) (CCRF-CEM [13]): Active | inhibition of growth at 10 µM (K562 [14]): 99.6% | inhibition of growth at 10 µM [15]: 98.9% | growth inhibition (GI) (SR [16]): Active | inhibition of growth at 10 µM (A549 [17]): 92.8% | inhibition of growth at 10 µM (NCI-H226): 35% | growth inhibition (GI) (NCI-H522): Active | growth inhibition (GI) (HT-29): Active | inhibition of growth at 10 µM [18]: 84.4% | inhibition of growth at 10 µM [19]: 85.4% | growth inhibition (GI) (Malme-3M): Active | growth inhibition (GI) (M14): Active | inhibition of growth at 10 µM [20]: 75.4% | inhibition of growth at 10 µM [21]: 57.1% | inhibition of growth at 10 µM [22]: 31.3% | growth inhibition (GI) (786-0 [23]): Active | inhibition of growth at 10 µM (A498): 70.8%

Cc1nc2cc(Nc3nc(Nc4ccc(F)cc4)nc(-c4cccs4)n3)ccc2n1Cc1ccccc1
inhibition of growth at 10 µM [24]: 74.1% | inhibition of growth at 10 µM (SN12C): 29.7% | inhibition of growth at 10 µM [1]: 24.8% | inhibition of growth at 10 µM [25]: 49.7% | LC50 (CCRF-CEM [2]): > 100 µM | GI50 (CCRF-CEM [2]): 2590 nM | TGI (CCRF-CEM [2]): 9.49 µM | CC50 [3]: > 100 µM | LC50 (K562 [4]): > 100 µM | CC50 [5]: > 100 µM | LC50 (concentration killing 50% of cells) (SR [6]): > 100 µM | GI50 (A549 [7]): 7.62 µM | LC50 (A549 [7]): 55.4 µM | TGI (A549 [7]): 33.1 µM | GI50 [8]: 4.66 µM | LC50 (concentration killing 50% of cells) [8]: 43 µM | TGI [8]: 14.4 µM | GI50 [9]: 4.72 µM | LC50 [9]: 39 µM | TGI [9]: 19.7 µM | GI50 (786-0 [10]): 4.54 µM | LC50 (concentration killing 50% of cells) (786-0 [10]): > 100 µM | TGI (786-0 [10]): 43.5 µM | LC50 [11]: > 100 µM | GI50 [11]: 5.2 µM | TGI [11]: 52.2 µM | CC50 [12]: > 100 µM | GI50 (MCF7): 5.24 µM | LC50 (concentration killing 50% of cells) (MCF7): 79.2 µM | TGI (MCF7): 21.9 µM | IC50 (Dihydrofolate reductase): 720 nM | Tm (Calf thymus DNA): 68.5 °C | inhibition of growth at 10 µM (CCRF-CEM [13]; read-out: GI): 72.8% | inhibition of growth at 10 µM (K562 [14]): 56.9% | inhibition of growth at 10 µM [15]: 76.5% | inhibition of growth at 10 µM (SR [16]; read-out: GI): 82% | inhibition of growth at 10 µM (A549 [17]): 56.9% | inhibition of growth at 10 µM (NCI-H226): 35% | inhibition of growth at 10 µM (NCI-H522; NCI-H522, 48 h, read-out: GI): 46.5% | inhibition of growth at 10 µM [26]: 43.2% | inhibition of growth at 10 µM (HT-29; HT-29, 48 h, read-out: GI): 79.5% | inhibition of growth at 10 µM [18]: 31.9% | inhibition of growth at 10 µM [19]: 36.3% | inhibition of growth at 10 µM [27]: 40.1% | inhibition of growth at 10 µM [28]: 47.8% | inhibition of growth at 10 µM [29]: 35.1% | inhibition of growth at 10 µM (Malme-3M; read-out: GI): 22.4% | inhibition of growth at 10 µM (M14; M14, 48 h, read-out: GI): 46.9% | inhibition of growth at 10 µM [20]: 51.7% | inhibition of growth at 10 µM [30]: 33.3% | inhibition of growth at 10 µM [21]: 7.98% | inhibition of growth at 10 µM [22]: 4.89% | inhibition of growth at 10 µM (786-0 [23]; 786-0, 48 h, read-out: GI): 62.5% | inhibition of growth at 10 µM (A498): 44%
